The results in this text go back to patent publication US11198695B2, “Fused ring derivative having MGAT-2 inhibitory activity” (Shionogi & Co., Ltd., priority 2017, dated 2021).

Like-named read-outs stand apart in the source and are kept apart here.

This assay addresses recombinant human MGAT2 (Homo sapiens (Human), UniProt Q3SYC2). Put plainly: Measurement of human MGAT2 inhibitory activity. The format is biochemical. As for the experimental part:
A full-length human MGAT2 gene to which a Flag-tag had been added at the N-terminal was inserted into pFastBac (from Invitrogen). A recombinant baculovirus was produced in accordance with the protocol for a Bac-to-Bac baculovirus expression system (produced by Invitrogen), and Sf-9 cells were infected therewith. The cells were collected and sonicated, and then the membrane fraction was collected through centrifugation. Western blotting analysis with an anti-Flag antibody was performed for the membrane fraction to confirm expression, and the membrane fraction was used as a recombinant human MGAT2 enzyme solution.
Solutions of the compounds of the present invention in DMSO were each aliquoted into 0.2-μL portions in a 384-well polystyrene microplate produced by Corning Incorporated, and 5 μL of an enzyme solution prepared with an assay buffer (100 mmol/L phosphate buffer (pH 7.4) containing 2 mmol/L DTT) and 5 μL of a substrate solution (100 mmol/L phosphate buffer (pH 7.4), 30 μmol/L 2-Oleoylglycerol, 10 μmol/L Oleoyl-CoA) were added thereto, and the resultant was stirred and centrifuged, and incubated in a moist chamber at room temperature for 1 hour. After enzymatic reaction, 50 μL of a quenching solution (containing 0.2 μmol/L Diolein-d5, 0.4% formic acid, and 50% isopropanol) containing Internal Standard (IS) was added to terminate the reaction, and the resultant was sealed in a plate produced by Shimadzu GLC Ltd., and then stirred and centrifuged, and measurement was performed by using an electrospray ionization method with a RapidFire360 and Agilent 6550 Q-TOF mass spectrometer. Diolein as a reaction product (P) of 2-Oleoylglycerol as the substrate and an ammonium adduct ion of the IS were detected, and the peak intensity ratio, P/IS, was calculated from the peak heights to evaluate the inhibitory activity. Inhibitory activities with/without addition of enzyme were defined as Control (+)/Control (−), respectively, and the respective % inhibitions were defined as 0% inhibition and 100% inhibition. The inhibitory activity was calculated from formula below with TIBCO Spotfire (produced by TIBCO Software Inc.): Inhibitory activity (%)=[1−{Sample−Control(−)}/{Control(+)−Control(−)}]*100 where Sample indicates a peak intensity ratio: P/IS, when the compound of the present invention was added.

Setting [1] is: read-out: IC50 (concentration exhibiting 50% enzyme inhibition), Table 53.
[2] abbreviates: read-out: IC50 (concentration exhibiting 50% enzyme inhibition), Table 52.

Chain of recombinant human MGAT2 (Q3SYC2 whole entry): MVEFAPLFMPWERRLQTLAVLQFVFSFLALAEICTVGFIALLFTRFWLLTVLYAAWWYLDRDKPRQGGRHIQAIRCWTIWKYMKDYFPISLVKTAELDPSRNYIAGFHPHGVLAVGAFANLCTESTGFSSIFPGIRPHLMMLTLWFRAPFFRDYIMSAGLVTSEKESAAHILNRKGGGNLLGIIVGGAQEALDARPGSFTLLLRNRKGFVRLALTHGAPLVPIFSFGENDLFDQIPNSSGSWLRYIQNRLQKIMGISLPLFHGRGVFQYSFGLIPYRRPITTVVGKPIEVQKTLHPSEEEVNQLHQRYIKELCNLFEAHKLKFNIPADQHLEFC

For the molecule `N#Cc1ccc(-n2nc3c(c2C(=O)NCCS(N)(=O)=O)C(=O)N[C@]2(CCc4cc(OCC(F)(F)F)ccc42)C3)nc1` [II-246], the IC50 under setting [1] was found to be 3.73 nM.

With `Cc1cccc(Cn2nc(NC(=O)CS(C)(=O)=O)c3c2C[C@]2(CCc4cc(OCCCC(F)(F)F)ccc42)NC3=O)c1` [Compound I-74], the IC50 under setting [2] is 520 nM.

On to `CS(=O)(=O)CC(=O)Nc1c2c(nn1CCn1cccn1)C[C@]1(CCOc3cc(OCC(F)(F)F)ccc31)NC2=O` [II-27], for which the IC50 under setting [1] is 21 nM.

In the case of `N#Cc1ccc(-n2nc3c(c2C(=O)NCC2(CO)CCCC2)C(=O)N[C@@]2(CCc4cc(OCC(F)(F)F)ccc42)C3)nc1` [II-109], under setting [1], the IC50 was 23.1 nM.

With `O=C1N[C@@]2(CCc3cc(OCC(F)(F)F)ccc32)Cc2nn(CCC3CC3)c(CNC(=O)C3(O)CC3)c21` [Compound I-156], the IC50 under setting [2] amounted to 920 nM.

As for `N#CCNC(=O)c1c2c(nn1CCC1CC1)C[C@]1(CCc3cc(OCC(F)(F)F)ccc31)NC2=O` [Compound I-84], the IC50 under setting [2] stood at 430 nM.

As to `CS(=O)(=O)CC(=O)Nc1c2c(nn1CCC1CC1)C[C@@]1(CCc3cc(-c4cnn(C(F)(F)F)c4)ccc31)NC2=O` [II-83], the IC50 under setting [1] was found to be 1.99 nM.

With `C[C@@]1(c2ccc(OCC(F)(F)F)cc2F)Cc2nn(-c3ccc(C#N)cn3)c(NC(=O)CS(C)(=O)=O)c2C(=O)N1` [II-95], under setting [1], the IC50 was determined as 4.29 nM.

`N#Cc1ccc(-n2nc3c(c2C(=O)NCC(N)=O)C(=O)N[C@]2(CCc4cc(OCC(F)(F)F)ccc42)C3)nc1` [II-245]: under setting [1], the IC50 came to 11.3 nM.

Regarding `CC(C)(O)c1ccc(-n2nc3c(c2NC(=O)CS(C)(=O)=O)C(=O)N[C@@]2(CCc4cc(OCCCC(F)(F)F)ccc42)C3)cc1` [Compound I-197], the IC50 under setting [2] came to 24 nM.

On to `CC(C)(C)S(=O)(=O)NC(=O)c1c2c(nn1CCC1CC1)C[C@]1(CCc3cc(OCC(F)(F)F)ccc31)NC2=O` [Compound I-118], for which, under setting [2], the IC50 stood at 370 nM.

Regarding `Cc1ccc(-n2nc3c(c2C(=O)NCC2(CO)CC2)C(=O)N[C@@]2(CCc4cc(OCC(F)(F)F)ccc42)C3)cc1F` [II-220], under setting [1], the IC50 amounted to 8.19 nM.

Take `CS(=O)(=O)CC(=O)Nc1c2c(nn1CCCOC(F)(F)F)C[C@@]1(CCc3cc(OCC(F)(F)C(F)(F)F)ccc31)NC2=O` [II-261]: under setting [1], the IC50 was 1 nM.

`CS(=O)(=O)CC(=O)Nc1c2c(nn1CCCOC(F)F)C[C@@]1(CCc3cc(OCC4CC(F)(F)C4)ccc31)NC2=O` [II-291]: the IC50 under setting [1] was below 1 nM.

For `CS(=O)(=O)CC(=O)Nc1c2c(nn1-c1ccc(C#N)cn1)C[C@]1(CCc3c1ccc(OCC(F)(F)F)c3F)NC2=O` [II-163], under setting [1], the IC50 came out at 6.1 nM.

For `Cc1cccc(-n2nc3c(c2NC(=O)CS(C)(=O)=O)C(=O)N[C@@]2(CCc4cc(OCC(F)(F)F)ccc42)C3)n1` [Compound I-134], the IC50 under setting [2] turned out to be 340 nM.

Take `CS(=O)(=O)CC(=O)Nc1c2c(nn1CCCC(F)(F)F)C[C@@]1(CCc3cc(OCC(F)(F)F)cc(F)c31)NC2=O` [Compound I-136]: the IC50 under setting [2] is 4.1 nM.

Take `N#Cc1ccc(-n2nc3c(c2C(=O)NS(=O)(=O)C2CC2)C(=O)N[C@]2(CCc4cc(OCC(F)(F)F)ccc42)C3)nc1` [II-273]: the IC50 under setting [1] was 14 nM.

On to `CS(=O)(=O)CCNC(=O)c1c2c(nn1-c1ccc(C#N)cn1)C[C@]1(CCc3cc(OCC(F)(F)F)ccc31)NC2=O` [II-111], for which the IC50 under setting [1] amounted to 50.8 nM.

In the case of `Cc1ccc(-n2nc3c(c2NC(=O)CS(C)(=O)=O)C(=O)N[C@](C)(c2ccc(Cl)cc2F)C3)nc1` [II-176], under setting [1], the IC50 turned out to be 8.32 nM.

`Cc1cc(-n2nc3c(c2C(=O)NCCS(N)(=O)=O)C(=O)N[C@@]2(CCc4cc(OCC(F)(F)F)ccc42)C3)no1` [II-254]: the IC50 under setting [1] was determined as 45.7 nM.

As to `Cc1ccc(-n2nc3c(c2C(=O)NCCS(C)(=O)=O)C(=O)N[C@@]2(CCc4cc(OCC(F)(F)F)ccc42)C3)nc1` [II-199], the IC50 under setting [1] was determined as 73.6 nM.

Consider `O=C1N[C@@]2(CCc3cc(OCC(F)(F)F)ccc32)Cc2nn(CCC3CC3)c(C(=O)NS(=O)(=O)CC3CC3)c21` [Compound I-116], for which, under setting [2], the IC50 was 260 nM.

For `Cc1cc(-n2nc3c(c2NC(=O)CS(C)(=O)=O)C(=O)N[C@@]2(CCc4cc(OCCCC(F)(F)F)ccc42)C3)nn1C` [II-268], the IC50 under setting [1] is 1.24 nM.

Consider `CS(=O)(=O)CC(=O)Nc1c2c(nn1-c1ccc(C#N)cn1)CC1(CN(c3cccc(C(F)(F)F)c3)C1)NC2=O` [II-89], for which the IC50 under setting [1] is 10.8 nM.

`CS(=O)(=O)CC(=O)Nc1c2c(nn1CCC1CC1)C[C@@]1(CCc3cc(CCC(F)(F)F)ccc31)NC2=O` [II-66]: the IC50 under setting [1] was determined as 2.5 nM.

For the molecule `Cc1cc(-n2nc3c(c2NC(=O)CS(C)(=O)=O)C(=O)N[C@@]2(CCc4cc(OCC(F)(F)F)ccc42)C3)on1` [II-169], under setting [1], the IC50 is 7.38 nM.

Turning to `Cc1nnsc1C(=O)Nc1c2c(nn1CCC1CC1)C[C@]1(CCc3cc(OCC(F)(F)F)ccc31)NC2=O` [Compound I-221], the IC50 under setting [2] worked out at 60 nM.

Take `N#Cc1ccc(-n2nc3c(c2C(=O)N[C@H]2C[C@H](O)C2)C(=O)N[C@@]2(CCc4cc(OCC(F)(F)F)ccc42)C3)nc1` [II-117]: under setting [1], the IC50 came out at 37.9 nM.

As for `Cc1cc(C(=O)Nc2c3c(nn2CCC2CC2)C[C@]2(CCc4cc(OCC(F)(F)F)ccc42)NC3=O)n(C)n1` [Compound I-229], the IC50 under setting [2] stood at 620 nM.

Take `COCCS(=O)(=O)NC(=O)c1c2c(nn1-c1ccc(C#N)cn1)C[C@]1(CCc3cc(OCC(F)(F)F)ccc31)NC2=O` [II-216]: the IC50 under setting [1] turned out to be 428 nM.

Consider `O=C(CN1CCCC1=O)Nc1c2c(nn1CCC1CC1)C[C@]1(CCc3cc(OCCCC(F)(F)F)ccc31)NC2=O` [Compound I-27], for which the IC50 under setting [2] worked out at 600 nM.

As to `CS(=O)(=O)CC(=O)Nc1c2c(nn1CCC1CC1)C[C@@]1(CCc3cc(OCC(F)(F)F)cc(F)c31)NC2=O` [Compound I-249], under setting [2], the IC50 turned out to be 3.5 nM.

Take `CS(=O)(=O)CC(=O)Nc1nn(CCOCC(F)F)c2c1C(=O)N[C@@]1(CCc3cc(OCCCC(F)(F)F)ccc31)C2` [Compound I-64]: under setting [2], the IC50 turned out to be 410 nM.

Turning to `Cc1ccc(-n2nc3c(c2NC(=O)CS(C)(=O)=O)C(=O)N[C@]2(CCc4cc(OCC(F)(F)F)ccc42)C3)nc1` [Compound I-270], under setting [2], the IC50 was determined as 2.8 nM.

Turning to `O=C(NCc1c2c(nn1CCC1CC1)C[C@]1(CCc3cc(OCC(F)(F)F)ccc31)NC2=O)c1cccc(O)c1` [Compound I-149], the IC50 under setting [2] was 690 nM.

On to `CS(=O)(=O)CC(=O)Nc1nn(Cc2nc(C(F)(F)F)cs2)c2c1C(=O)N[C@@]1(CCc3cc(OCCCC(F)(F)F)ccc31)C2` [Compound I-210], for which the IC50 under setting [2] worked out at 550 nM.

`CCCC(C)n1nc2c(c1NC(=O)CS(C)(=O)=O)C(=O)N[C@@]1(CCc3cc(OCC(F)(F)F)ccc31)C2` (stereo partly drawn) [Compound I-214]: under setting [2], the IC50 was determined as 460 nM.

With `CS(=O)(=O)CC(=O)Nc1c2c(nn1-c1cccc(F)c1)C[C@]1(CCc3cc(OCC(F)(F)F)ccc31)NC2=O` [Compound I-123], under setting [2], the IC50 was determined as 55.5 nM.

Regarding `Cc1cc(C(=O)Nc2c3c(nn2CCC2CC2)C[C@]2(CCc4cc(OCC(F)(F)F)ccc42)NC3=O)ns1` [Compound I-227], the IC50 under setting [2] worked out at 370 nM.

In the case of `CS(=O)(=O)CC(=O)Nc1c2c(nn1-c1ccc(C#N)cn1)C[C@]1(CCc3cc(C(F)(F)F)ccc31)NC2=O` [II-142], the IC50 under setting [1] turned out to be 4.03 nM.

As for `N#Cc1ccc(-n2nc3c(c2C(=O)NCC(N)=O)C(=O)N[C@@]2(CCc4cc(OCC(F)(F)F)ccc42)C3)nc1` [II-127], the IC50 under setting [1] was determined as 39.2 nM.

Consider `CS(=O)(=O)CC(=O)Nc1c2c(nn1CCC1CC1)C[C@@]1(CCc3cc(OC4CC4)ccc31)NC2=O` [II-98], for which the IC50 under setting [1] stood at 7.1 nM.

Regarding `Cc1cc(-n2nc3c(c2NC(=O)CS(C)(=O)=O)C(=O)N[C@@]2(CCc4cc(OCCCC(F)(F)F)ccc42)C3)no1` [II-282], the IC50 under setting [1] was below 1 nM.

Turning to `CCOc1ccc2c(c1)OCC[C@]21Cc2nn(-c3ccc(C)cn3)c(NC(=O)CS(C)(=O)=O)c2C(=O)N1` [II-145], the IC50 under setting [1] stood at 6.43 nM.

As to `O=C1N[C@@]2(CCc3cc(OCC(F)(F)F)ccc32)Cc2nn(CCC3CC3)c(CNC(=O)C3CS(=O)(=O)C3)c21` [Compound I-161], the IC50 under setting [2] is 430 nM.

With `CS(=O)(=O)CC(=O)Nc1c2c(nn1-c1ccc(C#N)c(F)c1)C[C@]1(CCc3cc(OCC(F)(F)F)ccc31)NC2=O` [II-104], the IC50 under setting [1] stood at 11.5 nM.

Turning to `Cc1cc(C(=O)Nc2c3c(nn2CCC2CC2)C[C@]2(CCc4cc(OCC(F)(F)F)ccc42)NC3=O)on1` [Compound I-92], under setting [2], the IC50 turned out to be 73 nM.

In the case of `Cc1ccc(-n2nc3c(c2C(=O)NCC#N)C(=O)N[C@@]2(CCOc4cc(OCC(F)(F)F)ccc42)C3)nc1` [II-228], the IC50 under setting [1] was 37 nM.

Take `CS(=O)(=O)CC(=O)Nc1c2c(nn1-c1ccccn1)C[C@]1(CCc3cc(F)cc(F)c31)NC2=O` [Compound I-175]: the IC50 under setting [2] came to 86 nM.

As to `N#Cc1ccc(-n2nc3c(c2C(=O)NCCF)C(=O)N[C@@]2(CCc4cc(OCC(F)(F)F)ccc42)C3)nc1` [II-178], under setting [1], the IC50 worked out at 59.7 nM.
